In general, Kd refers to the free concentration of one partner at which half of the binding sites on the other are occupied at equilibrium, for simple one-to-one binding. What is called IC50 is the concentration needed to halve the response being measured. Lower therefore signals higher potency.

Where two headings read alike, the source gives them in different places.

The values below come from publication PMC7699381, “Rare-Earth Metal Complexes of the Antibacterial Drug Oxolinic Acid: Synthesis, Characterization, DNA/Protein Binding and Cytotoxicity Studies” (Molecules, 2020).

Data set [1] concerns the target T1, Human serum albumin (HSA) (Homo sapiens, UniProt P02768). Put plainly: Fluorescence quenching of human serum albumin. The settings on record: for n (Hill Coefficient), HSA / n (Number of Binding Sites), HSA / Ksv (Stern-Volmer constant), HSA / Kq (bimolecular quenching constant), HSA / fa (fraction of fluorophore accessible to the quencher), HSA / Kd / Ka (association binding constant), HSA: 298 K; for Ksv (Stern-Volmer constant), HSA / quenching effect on HSA fluorescence peak: 2.5 µM HSA; for Ksv (Stern-Volmer constant), HSA: 0–8 µM compound, pH 7.4; for Kq (bimolecular quenching constant), HSA: from KSV = Kq τ0; for fa (fraction of fluorophore accessible to the quencher), HSA: modified Stern-Volmer; for Kd: HSA; for quenching effect on HSA fluorescence peak: compound up to 8 µM, λex 280 nm.

Data set [2] relates to MDA-MB 231 (human breast adenocarcinoma). Kind of data set: MTS cytotoxicity assay, MDA-MB 231 cells. Format: cell-based. How it is done:
(§1) For the evaluation of the cytotoxic effects of the complexes and ligand two human cancer cell lines were used, namely MDA-MB 231 (human breast adenocarcinoma) and LoVo (human colon adenocarcinoma); a normal cell line, human umbilical vein endothelial cells (HUVEC), was used as a reference. […] After 24 h and 48 h, respectively, cell viability was evaluated through MTS assay (data shown in Figures S16–S18) and the IC50 values were calculated (Table 5). The cytotoxicity assay is based on the ability of metabolically active cells to reduce MTS, a yellow tetrazolium salt, to the colored formazan, soluble in the culture medium; the concentration of formazan can be spectrophotometrically determined. […] PES is a cationic dye with high chemical stability that binds to MTS and forms a stable solution. […] The reduced MTS to formazan was spectrophotometrically measured at λ = 492 nm. The test was run on two cancer cell lines, LoVo and MDA-MB 231, and on a normal cell line, HUVEC. […] Cell viability data were obtained in triplicate (n = 3) and expressed as mean values ± standard deviations (SD). […] All assays were performed in 96-well microtiter plates with flat bottom (Falcon), using CellTiter 96 Aqueous One Solution Cell Proliferation Assay (Promega), an MTS-based colorimetric assay. The formazan was spectrophotometrically measured using the Tecan GENios Spectrophotometer.
(Tetrazolium dyes change colour on reduction, which living cells bring about.)

The subject of data set [3] is HUVEC (normal human umbilical vein endothelial cells). Put plainly: MTS cytotoxicity assay, HUVEC normal cells. Format: cell-based. The note with it: 48 h of incubation. How it is done: as §1
The next data set deals with EB-DNA system (CT-DNA). Put plainly: Competitive binding assay with ethidium bromide (EB) through fluorescence spectroscopy. The note with it: 10 µM CT-DNA, 2 µM EB; for Ksv (Stern-Volmer quenching constant, EB-DNA system): 0–40 µM compound, λex 500 nm; for K50 (EB Displacement Assay): concentration corresponding to 50% binding. Also noted: species or system calf. The source says: The manner of binding to the DNA macromolecule can be investigated through competitive binding studies with ethidium bromide (3,8-diamino-5-ethyl-6-phenylphenanthridinium bromide), a fluorescent dye; due to its aromatic ring, it can intercalate between two adjacent base pairs in the DNA structure and form a complex which emits fluorescent light; displacing EB results in a quenching effect. The Stern-Volmer constant (KSV) and the dissociation constant (K50) have been calculated from the resulting data.
Competitive binding studies were carried out on a Jasco FP 6500 fluorometer at room temperature, using quartz cells of 1 cm path-length. The fluorescence spectra were recorded on 1.6 mL samples containing 10 µM CT-DNA and 2 µM EB in the absence and presence of increasing amounts (0–40 µM with an increment of 5 µM) of complexes and free ligands, respectively, after being kept in contact for 10 min at room temperature, under continuous stirring and in the dark. The excitation wavelength used was 500 nm and the spectra was recorded in the 520–800 nm range. Two control samples were used, the first one containing DMSO, DNA and EB and the second one just the complex.
Data from the assay can be interpreted using the classical Stern-Volmer equation (Equation (3)):(3) F0/F=1+ KSV·[Q] where F0 and F are the fluorescence intensities of the EB-DNA samples in the absence and presence of the tested compounds and [Q] is the concentration of the compound; KSV is the Stern-Volmer constant and can be calculated from the plot of F0/F vs. [Q] as the slope.
The ratio of binding relative to the control sample exposed only to DMSO was plotted against the logarithm of concentration. The data points were fitted using the modified Hill function with offset (Origin®) (Equation (4)):(4) y=A1+(A2−A1)×x^n/K50^n+x^n where y is the ratio of binding (F/F0) and x is the concentration, A1 is the minimum of y values, A2 is the maximum of y values, K50 is the concentration corresponding to 50% binding and n is the Hill coefficient.

Another data set concerns the target T2, Apo-transferrin (apo-Tf) (Homo sapiens, UniProt P02787).
T2 construct: purchased Sigma Aldrich Chemical Co. (Schnelldorf, Germany)
Kind of data set: Fluorescence quenching of apo-transferrin. Format: binding. The settings on record: for n (Hill Coefficient), apo-Tf / n (Number of Binding Sites), apo-Tf / Ksv (Stern-Volmer constant), apo-Tf / Kq (bimolecular quenching constant), apo-Tf / fa (fraction of fluorophore accessible to the quencher), apo-Tf / Kd / Ka (association binding constant), apo-Tf: 298 K; for Ksv (Stern-Volmer constant), apo-Tf: 0–8 µM compound, pH 7.4; for Kq (bimolecular quenching constant), apo-Tf: from KSV = Kq τ0; for fa (fraction of fluorophore accessible to the quencher), apo-Tf: modified Stern-Volmer.

In data set [4] the test system is LoVo (human colon adenocarcinoma). Put plainly: MTS cytotoxicity assay, LoVo cells. The note with it: 48 h of incubation. In kind it is cell-based. How it is done:
as §1

The target of data set [5] is T1, Human serum albumin (HSA).

T1 sequence (P02768 25-609): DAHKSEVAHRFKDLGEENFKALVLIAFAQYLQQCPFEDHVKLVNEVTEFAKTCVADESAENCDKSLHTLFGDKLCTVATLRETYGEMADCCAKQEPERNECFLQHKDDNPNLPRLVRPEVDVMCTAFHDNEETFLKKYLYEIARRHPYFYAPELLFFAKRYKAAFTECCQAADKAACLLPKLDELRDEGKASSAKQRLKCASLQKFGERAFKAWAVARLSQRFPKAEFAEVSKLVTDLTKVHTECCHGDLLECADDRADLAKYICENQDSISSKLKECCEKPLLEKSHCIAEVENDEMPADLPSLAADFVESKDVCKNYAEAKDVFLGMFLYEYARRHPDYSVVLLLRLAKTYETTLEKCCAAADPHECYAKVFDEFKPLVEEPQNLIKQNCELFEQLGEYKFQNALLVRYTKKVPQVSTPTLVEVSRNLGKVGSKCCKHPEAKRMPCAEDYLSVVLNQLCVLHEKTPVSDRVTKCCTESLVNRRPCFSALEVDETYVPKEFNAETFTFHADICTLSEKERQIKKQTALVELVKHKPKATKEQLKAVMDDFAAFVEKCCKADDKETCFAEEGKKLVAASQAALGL
T2 sequence (P02787 20-698): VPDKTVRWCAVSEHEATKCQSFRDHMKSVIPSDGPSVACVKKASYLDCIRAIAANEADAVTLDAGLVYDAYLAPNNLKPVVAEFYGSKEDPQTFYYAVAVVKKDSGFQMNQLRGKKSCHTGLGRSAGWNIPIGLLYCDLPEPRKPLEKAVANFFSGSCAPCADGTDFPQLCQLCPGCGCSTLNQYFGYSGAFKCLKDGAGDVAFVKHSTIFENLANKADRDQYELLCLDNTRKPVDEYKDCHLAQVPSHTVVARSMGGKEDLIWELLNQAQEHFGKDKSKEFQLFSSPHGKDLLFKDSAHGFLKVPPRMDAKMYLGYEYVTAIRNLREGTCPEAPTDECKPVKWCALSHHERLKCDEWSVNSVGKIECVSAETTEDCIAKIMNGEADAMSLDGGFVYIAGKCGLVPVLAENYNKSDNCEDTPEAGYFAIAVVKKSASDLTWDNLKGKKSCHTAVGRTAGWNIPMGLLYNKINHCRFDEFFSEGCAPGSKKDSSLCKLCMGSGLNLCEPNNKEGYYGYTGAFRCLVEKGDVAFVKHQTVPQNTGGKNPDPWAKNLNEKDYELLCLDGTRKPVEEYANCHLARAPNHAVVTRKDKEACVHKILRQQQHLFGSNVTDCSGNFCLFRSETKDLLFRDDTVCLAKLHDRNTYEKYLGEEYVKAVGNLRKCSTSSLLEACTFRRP

As to `CCn1cc(C(=O)O)c(=O)c2cc3c(cc21)OCO3` [oxo, 5-ethyl-5,8-dihydro-8-oxo-l,3 dioxolo[4,5-g]quinoline-7-carboxylic acid, reference compound], in data set [1], the “n (Hill Coefficient), HSA” value was 1.62 ± 0.39; the “n (Number of Binding Sites), HSA” value is on record as 0.90 ± 0.01; the “Ksv (Stern-Volmer constant), HSA” value was “(1.95 ± 0.38) × 10^4 M^−1”; the “Kq (bimolecular quenching constant), HSA” value was 1.95e+12 M⁻¹ s⁻¹. Further, in data set [1], the “fa (fraction of fluorophore accessible to the quencher), HSA” value came to 1.92 ± 0.35. Besides, the “Ksv (Stern-Volmer constant), HSA” value in data set [1] (listed as oxolinic acid) is recorded as 1.95 (± 0.38) × 10^4 M^−1. The compound also gave an equilibrium dissociation constant (Kd) in data set [1] (Ka (association binding constant)) of 92.6 µM. The same compound registered a Kd in data set [1] (Kd) of 7.26 ± 2.66 µM. Half-maximal inhibition in data set [2] (Homo sapiens, MDA-MB-231, 48 h of incubation) (IC50) was put at 43.5 ± 4.94 µM. For the same compound, the IC50 in data set [3] (Homo sapiens, HUVEC) is greater than 200 µM. In the data set with EB-DNA system (CT-DNA), the “Ksv (Stern-Volmer quenching constant, EB-DNA system)” value was “(1.05 ± 0.02) × 10^4” and the “K50 (EB Displacement Assay)” value was 42.07 ± 18.48 µM. Also, on Apo-transferrin (apo-Tf), the “n (Hill Coefficient), apo-Tf” value turned out to be 1.89 ± 1.35; the “n (Number of Binding Sites), apo-Tf” value is listed as 0.67 ± 0.00; the “Kq (bimolecular quenching constant), apo-Tf” value (from here on “Kq … apo-Tf”) worked out at 1.745e+13 M⁻¹ s⁻¹; the “fa (fraction of fluorophore accessible to the quencher), apo-Tf” value is on record as 0.36±0.01. Also, the “Ksv (Stern-Volmer constant), apo-Tf” value on Apo-transferrin (apo-Tf) (1 µM apo-Tf) is on record as “(17.45 ± 0.95) × 10^4 M^−1”. The compound further displayed a Kd at Apo-transferrin (apo-Tf) (Kd, apo-Tf) of 8.11 ± 7.34 µM. Further, the half-maximal inhibitory concentration (IC50) in data set [4] (Homo sapiens, LoVo) is greater than 200 µM.

With [Gd(oxo)(OH)(H2O)]·0.5H2O [Gd oxo], the Kd in data set [5] was 5.32 ± 0.69 µM. Also, in data set [1], the “quenching effect on HSA fluorescence peak” value is reported as ~ 47%; the “Ka (association binding constant), HSA” value was “(1.98 ± 0.82) × 10^5 M^−1”; the “n (Hill Coefficient), HSA” value was found to be 1.81 ± 0.26; the “n (Number of Binding Sites), HSA” value is 1.06 ± 0.03. In addition, in data set [1], the “Ksv (Stern-Volmer constant), HSA” value is given as “(5.77 ± 0.84) × 10^4 M^−1”; the “Kq (bimolecular quenching constant), HSA” value came out at 5.77e+12 M⁻¹ s⁻¹; the “fa (fraction of fluorophore accessible to the quencher), HSA” value is 1.39 ± 0.15. 73.8 ± 18.5 µM corresponded to half-maximal inhibition in data set [2] (48 h of incubation) (IC50). Moreover, the IC50 in data set [3] was greater than 200 µM. In the data set with EB-DNA system (CT-DNA), the “Ksv (Stern-Volmer quenching constant, EB-DNA system)” value is “(1.18 ± 0.01) × 10^4” and the “K50 (EB Displacement Assay)” value came to 47.75 ± 25.22 µM. For the same compound, on Apo-transferrin (apo-Tf), the “Ka (association binding constant), apo-Tf” value is on record as “(0.58 ± 0.25) × 10^4 M^−1”; the “n (Hill Coefficient), apo-Tf” value turned out to be 1.24 ± 0.45; the “n (Number of Binding Sites), apo-Tf” value stood at 0.76 ± 0.03; the “Kq … apo-Tf” value was found to be 1.751e+13 M⁻¹ s⁻¹. On Apo-transferrin (apo-Tf), the “fa (fraction of fluorophore accessible to the quencher), apo-Tf” value came to 0.73 ± 0.02. On Apo-transferrin (apo-Tf) (1 µM apo-Tf), the “Ksv (Stern-Volmer constant), apo-Tf” value is reported as “(17.51 ± 1.06) × 10^4 M^−1”. For the same compound, the Kd on Apo-transferrin (apo-Tf) (read-out: Kd, apo-Tf) came to 8.8 ± 6.57 µM. Also, the IC50 in data set [4] was determined as 56.5 ± 3.83 µM.

Regarding [Tb(oxo)(OH)(H2O)] · 0.5 H2O [Tb oxo], binding in data set [5] was characterised by a dissociation constant (Kd) of 5.97 ± 0.89 µM. Moreover, in data set [1], the “quenching effect on HSA fluorescence peak” value is recorded as 52.63%; the “Ka (association binding constant), HSA” value is listed as 6.83(±1.33) × 10^5 M^−1; the “n (Hill Coefficient), HSA” value stood at 1.58 ± 0.20; the “n (Number of Binding Sites), HSA” value is on record as 1.18 ± 0.01. In data set [1], the “Ksv (Stern-Volmer constant), HSA” value is given as “(2.84 ± 0.70) × 10^4 M^−1”; the “Kq (bimolecular quenching constant), HSA” value turned out to be 2.84e+12 M⁻¹ s⁻¹; the “fa (fraction of fluorophore accessible to the quencher), HSA” value came to 2.13 ± 0.45. For the same compound, in data set [1] (listed as Tb-oxo), the “Ka (association binding constant), HSA” value is “(6.83 ± 1.33) × 10^5 M^−1”. Besides, in data set [2] (48 h of incubation), the IC50 was greater than 200 µM. Besides, the IC50 in data set [3] is greater than 200 µM. In addition, in the data set on EB-DNA system (CT-DNA), the “Ksv (Stern-Volmer quenching constant, EB-DNA system)” value is on record as “(1.18 ± 0.00) × 10^4” and the “K50 (EB Displacement Assay)” value worked out at 20.28 ± 1.15 µM. The “quenching effect on apo-Tf fluorescence peak” value on Apo-transferrin (apo-Tf) (1 µM apo-Tf, compound up to 8 µM, λex 295 nm) is given as 47.62%. For the same compound, at Apo-transferrin (apo-Tf), the “Ka (association binding constant), apo-Tf” value is reported as “(1.28 ± 0.17) × 10^4 M^−1”; the “n (Hill Coefficient), apo-Tf” value turned out to be 1.57 ± 0.33; the “n (Number of Binding Sites), apo-Tf” value is reported as 0.81 ± 0.01; the “Kq … apo-Tf” value was found to be 1.945e+13 M⁻¹ s⁻¹. Moreover, the “fa (fraction of fluorophore accessible to the quencher), apo-Tf” value at Apo-transferrin (apo-Tf) was 0.77 ± 0.01. At Apo-transferrin (apo-Tf) (1 µM apo-Tf), the “Ksv (Stern-Volmer constant), apo-Tf” value is on record as 19.45 (± 1.10) × 10^4 M^−1. Moreover, the “Ksv (Stern-Volmer constant), apo-Tf” value at Apo-transferrin (apo-Tf) (1 µM apo-Tf, listed as Tb-oxo) is recorded as “(19.45 ± 1.10) × 10^4 M^−1”. Moreover, the equilibrium dissociation constant (Kd) at Apo-transferrin (apo-Tf) (read-out: Kd, apo-Tf) is 5.57 ± 1.22 µM. For the same compound, the 50% inhibitory concentration (IC50) in data set [4] amounted to 40.6 ± 7.43 µM.
